According to paper PMC10781691, “Vertical pathway inhibition of receptor tyrosine kinases and BAD with synergistic efficacy in triple negative breast cancer” (NPJ Precision Oncology, 2024):

Assays:
[1] = system: c-Kit; details: read-out: potency on Kit; cited from earlier work
[2] = system: LCK; design: method as in SelleckChem; details: ref SelleckChem; cited from earlier work
[3] = system: c-Raf; design: method as in SelleckChem; details: ref SelleckChem; cited from earlier work
[4] = Phase I, cited from earlier work
[5] = system: CSF-1R; design: method as in SelleckChem; details: ref SelleckChem; cited from earlier work
[6] = system: Flt1; design: method as in SelleckChem; details: ref SelleckChem; cited from earlier work
[7] = system: MDA-MB-231 cells; assay: Annexin V-PI apoptosis flow cytometry; details: MDA-MB-231, 5 μM
From the text: Representative flow cytometry plots of Annexin-V and propidium iodide (PI) stained apoptotic
or NPB using flow cytometry analysis. Annexin V-FITC staining is indicated on the x axis, and PI staining is indicated on the y axis. The lower left quadrants represent live cells, the lower right quadrants represent early apoptotic cells, the upper left quadrants represent necrotic cells, and the upper right quadrants display late apoptotic cells. Acquisition of Annexin V and PI data are presented as a percentage (%) in each quadrant. Early apoptotic cells are referred to as Annexin- V positive and late apoptotic cells are referred to as Annexin-V and PI double positive.

[8] = system: BT549 cells; assay: AlamarBlue assay IC50 (Supplementary Fig. 5A); type: cell-based; details: Homo sapiens, BT-549
From the text: (§1) Ionization potential (I ) 7.21 eV
(§2) Electron affinity (A) 4.79 eV
(§3) Chemical potential (μ) 6.00 eV […]
(§4) using AlamarBlue assay. Data represent means ± SD. (B) Cartoon representation of the compounds NPB (red) and NCK (black) (depicted in ball & stick model) docked to the BAD protein, occupying the same groove with the BAD Serine 99 residue (yellow) nearby. (C) 2D structure representation of compound NPB interacting with BAD protein residues. (D) Cartoon representation of docked compound and molecular electrostatic potential surfaces of NCK. The color code of the compound lies in the range of -0.121e0 to +0.121e0. Red and blue color in the MEP structure point to more electron rich and electron poor regions respectively. (E) The […]

[9] = system: MDA-MB-231 cells; assay: AlamarBlue assay IC50 (Supplementary Fig. 5A); type: cell-based; details: Homo sapiens; MDA-MB-231, AlamarBlue assay
From the text: as §1, §2, §3, §4

[10] = system: MDA-MB-231 cells; assay: CASPASE 3/7 DEVD assay; details: MDA-MB-231, 5 μM NCK
[11] = system: BT549 cells; assay: AlamarBlue cell viability, 3D Matrigel culture; type: cell-based, human
[12] = system: BAD phosphorylation at Ser75 and Ser118; assay: Western blot of BAD phosphorylation at Ser75 and Ser118 in TNBC cells; type: cell-based, human; details: MDA-MB-231 and BT549 cells
Experimental: To compare the binding affinity of NCK and NPB towards BAD, we performed surface plasmon resonance (SPR) measurement by immobilizing BAD protein on a sensor chip with NCK or NPB as analyte. Representative reference-subtracted overlaid sensorgrams and the kinetic parameters are specified in Fig. 2d and Supplementary Fig. 6A. […] Additionally, the pharmacological inhibition of BAD phosphorylation by NCK or NPB in TNBC cells was evaluated. […] Furthermore, the comparative potencies of NPB and NCK were evaluated in eight TNBC cell lines using total cell number assay in 2D culture and cell viability in 3D culture (Supplementary Fig. 6C, D).

[13] = system: MDA-MB-231 cells; assay: Cell cycle analysis by PI flow cytometry; type: cell-based, human; details: MDA-MB-231, 5 μM
From the text: Fig. 3 NCK enhances apoptosis and impedes cell-cycle progression in TNBC cells. a Hallmark analysis of the differential expressed genes (DEGs). […] NES, normalized enrichment score. FDR, false discovery rate.
Supplementary Figure 9: (A) Representative flow cytometry plots using PI staining for DNA
or NPB using flow cytometry analysis.

[14] = system: 4T1-luciferase cells
Experimental: Since metastasis is the primary contributor to mortality and poor prognosis for TNBC patients, the therapeutic potential of NCK, TKIs or combined NCK-TKI treatment on TNBC metastasis was further evaluated with an experimental lung metastasis model.
In vivo bioluminescent imaging was performed to determine the incidence and metastatic burden of luciferase-labeled 4T1 cells. Mice were injected i.p. with 10 mg/ml of D-luciferin (Gold Biotechnology, MO, USA) and imaged using a PerkinElmer IVIS Spectrum system. PDX were generated as previously described by transplanting fresh fragments orthotopically into 8-week-old female nonobese diabetic (NOD)/severe combined immunodeficient (SCID) mice (Beijing Vital River Laboratory Animal Technology Co., Beijing, China) (P1, passage 1)[40]. The P1 xenografts were then fragmented, digested into single-cell suspension and implanted into mammary fat pad (100 μL PBS containing growth factor reduced 50% Matrigel) of NOD/SCID mice. Once orthotopic xenografts reached an approximate size of 100 mm^3, the mice were randomly divided into three groups (n = 8) for single drug studies and six groups (n = 6) for combination studies and Kaplan-Meier (KM) analyses. […] Animal body weight and xenograft size were measured daily using an electronic balance and a digital caliper, respectively. Xenograft volume (mm^3) was calculated by using the formula: 0.52 × length × [width]^2. Complete response (CR) was achieved if the average xenograft volume for the treatment group was unable to be determined for two or more consecutive measurements. Partial response (PR) was achieved if the average xenograft volume reduced to <50 mm^3 for two or more consecutive measurements. After 3-week drug treatment, all mice were sacrificed by CO2 inhalation. Tumor and vital organs were weighed and isolated for further analysis. IHC analysis of xenograft histology sections and quantitative polymerase chain reaction (qPCR) were performed as previously described. […] For PDX, xenograft growth was monitored daily by measurement of the xenograft volume until mice humane endpoint ( ~ 1000 mm^3).
luciferase cell generated metastasis model. Scale bar, 20 µm. (C) Animal weight of each
treatment group was indicated. (D) Changes in relative lung, liver, spleen, heart and kidney
(CRI) or combinations during the study at day 9.

[15] = system: BT549 cells; assay: Total cell number assay, 2D culture; type: cell-based, human
Experimental: (§5) Fold difference was calculated. Data represent means ± SD (n = 3).

[16] = system: MDA-MB-231 cells; assay: Total cell number assay, 2D culture; type: cell-based, human
Experimental: as §5

[17] = system: BT549 cells; assay: Cell cycle analysis by PI flow cytometry; type: cell-based, human; details: BT549, 5 μM
[18] = BALB/c mice, day 9, NCK 20 mg/kg, OSI 50 mg/kg, CRI 50 mg/kg

**Q.** For `O=C(Nc1ccc(OC(F)(F)F)cc1)c1sccc1NCc1ccnc2ccccc12` [OSI-930], which IC50 [1] is on record?
**A.** 80 nM

**Q.** And the IC50 [2]?
**A.** 22 nM

**Q.** And the IC50 [3]?
**A.** 41 nM

**Q.** And the “MTD, BID” value ([4]; ref NCT00513851)?
**A.** 500 mg

**Q.** And the “MTD, QD” value ([4]; ref NCT00513851)?
**A.** 1600 mg

**Q.** What about the “MTD of OSI-930 BID with 150 mg erlotinib QD” value ([4]; ref NCT00603356) of the same compound?
**A.** 200 mg

**Q.** What about the IC50 [5] of the same compound?
**A.** 15 nM

**Q.** And the IC50 [6]?
**A.** 8 nM

**Q.** For `Oc1ccccc1C(c1cccnc1)N1CCN(c2cccc(Cl)c2Cl)CC1` (stereo not drawn) [NCK, 2-((4-(2,3-dichlorophenyl)piperazin-1-yl)(pyridin-3-yl)methyl) phenol], which “induction of apoptosis (early and late)” value [7] is on record?
**A.** more potent effect than NPB in inducing apoptosis

**Q.** And the IC50 [8]?
**A.** 12100 ± 1360 nM

**Q.** And the IC50 [9]?
**A.** 4940 ± 2800 nM

**Q.** What about the “CASPASE 3/7 activity vs vehicle” value [10] of the same compound?
**A.** increased CASPASE 3/7 activity

**Q.** What about the “growth in 3D Matrigel” value ([11]; BT549, 5 μM each) of the same compound?
**A.** reduced cell growth in 3D Matrigel

**Q.** What about the “fold IC50 difference NCK vs NPB” value ([11]; BT549, 3D Matrigel) of the same compound?
**A.** ~ 8 fold

**Q.** What about the IC50 ([11]; Homo sapiens, BT-549, BT549, 3D Matrigel, AlamarBlue) of the same compound?
**A.** 309 nM

**Q.** And the “levels of pBADSer75/BAD and pBADSer118/BAD” value [12]?
**A.** did not alter

**Q.** What about the “decrease in S-phase” value [13] of the same compound?
**A.** 15.68%

**Q.** What about the “increase in G1-phase” value [13] of the same compound?
**A.** 17.75%

**Q.** What about the “lung metastases (bioluminescent signals) vs control” value ([14]; 4T1-luciferase metastasis model) of the same compound?
**A.** significantly abrogated lung metastases

**Q.** What about the “Relative Heart Weight” value [14, 18] of the same compound?
**A.** 0.51±0.07%

**Q.** What about the “Relative Kidney Weight” value [14, 18] of the same compound?
**A.** 1.40±0.07%

**Q.** What about the “Relative Liver Weight” value [14, 18] of the same compound?
**A.** 4.55±0.21%

**Q.** And the “Relative Lung Weight” value [14, 18]?
**A.** 1.70±0.49%

**Q.** What about the “Relative Spleen Weight” value [14, 18] of the same compound?
**A.** 1.54±0.54%

**Q.** And the “fold IC50 difference NCK vs NPB” value ([15]; BT549, 2D)?
**A.** ~ 2 fold

**Q.** What about the IC50 ([15]; Homo sapiens, BT-549, BT549, 2% FBS) of the same compound?
**A.** 1700 nM

**Q.** What about the IC50 ([16]; Homo sapiens, MDA-MB-231, 2% FBS) of the same compound?
**A.** 1010 nM

**Q.** And the “fold IC50 difference NCK vs NPB” value ([16]; MDA-MB-231, 2D)?
**A.** ~ 3 fold

**Q.** And the “decrease in S-phase” value [17]?
**A.** 27.12%

**Q.** And the “increase in G1-phase” value [17]?
**A.** 30.43%
